# From ChEMBL document CHEMBL1201862, “PubChem BioAssay data set” (2004)
# Calls of active or inactive are those of the source.
# Assays:
# [1] = Vero E6 cell cytotoxicity, dose response, cytotoxicity control for non-replicating M. tuberculosis project, secondary assay (AID 492998); type: functional, VeroE6; conditions: Vero C1008
# [2] = HepG2 cell cytotoxicity, dose response, cytotoxicity control for non-replicating M. tuberculosis project (AID 489018); type: functional; conditions: Mycobacterium tuberculosis
# [3] = THP-1 cell cytotoxicity, dose response, cytotoxicity control for non-replicating M. tuberculosis project (AID 489025); type: functional
# [4] = cells; type: functional
# [5] = molecular target: T1, CAAX prenyl protease 2 (Saccharomyces cerevisiae S288c, UniProt Q03530); type: biochemical
# T1 sequence (Q03530 whole entry): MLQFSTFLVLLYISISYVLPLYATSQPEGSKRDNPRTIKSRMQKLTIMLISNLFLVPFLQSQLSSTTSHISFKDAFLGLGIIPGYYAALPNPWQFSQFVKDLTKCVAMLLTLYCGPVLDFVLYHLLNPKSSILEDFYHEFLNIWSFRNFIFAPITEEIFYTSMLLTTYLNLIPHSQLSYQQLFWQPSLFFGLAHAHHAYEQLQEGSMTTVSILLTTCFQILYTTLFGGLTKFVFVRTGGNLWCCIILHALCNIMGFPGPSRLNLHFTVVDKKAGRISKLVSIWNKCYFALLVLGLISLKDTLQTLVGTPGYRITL
# [6] = inhibitors of SNCA 5'UTR-driven reporter translation, confirmation, H4 neuroglioma cells, luminescence (AID 1988); type: functional, cell-based
# [7] = cells; type: functional, cell-based
# [8] = inhibitors of SNCA 5'UTR-driven translation, confirmation, luminescence, H4 neuroglioblastoma cells, dose confirmation (AID 2454); type: functional, cell-based;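 also: H4 neuroglioblastoma cells carrying an alpha-synuclein 5'UTR luciferase reporter; potency for inhibition of the luciferase signal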
# [9] = molecular target: T2, Heat shock factor protein 1 (Mus musculus, UniProt P38532); test: inhibition of MG132-induced HSE-luciferase signal, confirmation, cell-based, NIH3T3, luminescence, dose retest (AID 2382); type: functional;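 also: NIH3T3 fibroblasts with HSF1-driven luciferase reporter stressed by proteasome inhibitor MG132; luminescence from HSF1-driven luciferase expression after 8 hours of MG132 stress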
# T2 sequence (P38532 whole entry): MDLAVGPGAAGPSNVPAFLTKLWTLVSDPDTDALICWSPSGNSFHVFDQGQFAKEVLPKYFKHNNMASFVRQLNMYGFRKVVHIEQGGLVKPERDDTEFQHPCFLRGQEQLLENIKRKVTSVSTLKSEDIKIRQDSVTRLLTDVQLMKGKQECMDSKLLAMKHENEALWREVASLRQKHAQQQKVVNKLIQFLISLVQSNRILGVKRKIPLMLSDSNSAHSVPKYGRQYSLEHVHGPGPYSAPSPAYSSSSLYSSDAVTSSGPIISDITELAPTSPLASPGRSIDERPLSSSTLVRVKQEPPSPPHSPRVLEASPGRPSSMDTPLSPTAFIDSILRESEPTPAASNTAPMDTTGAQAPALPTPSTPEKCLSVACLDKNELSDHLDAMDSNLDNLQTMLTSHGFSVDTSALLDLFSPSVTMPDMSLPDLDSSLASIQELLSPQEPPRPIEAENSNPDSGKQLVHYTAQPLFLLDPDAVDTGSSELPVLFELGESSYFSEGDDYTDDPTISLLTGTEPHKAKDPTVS
# [10] = inhibitors of firefly luciferase expression or activity, dose response, H4 neuroglioma cells, luminescence (AID 1990); type: functional, cell-based
# [11] = luciferase reporter signal reduction – luminescence, H4-C neuroglioblastoma cells, dose response (AID 2458); type: functional, cell-based;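 also: H4 neuroglioblastoma cells stably carrying a luciferase reporter gene fusion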
# [12] = cytotoxicity in HEK-293T cells, dose response, cytotoxicity control for TCR NF-kB inhibitor project, luminescence, T-cell screen hits (AID 489026); type: functional, cell-based;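 also: cells exposed to compound about 14 hours before the viability readout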
# [13] = Luminescence Cell-Based Dose Response HTS to Identify Inhibitors of 5'UTR Stem-Loop Driven Prion Protein mRNA Translation in H4 Neuroglioblastoma Cells. [Related pubchem assays: 1827 (Project Summary), 1813 (Primary HTS)]; type: functional
# [14] = molecular target: Trypsin (Sus scrofa, UniProt P00761); test: porcine trypsin inhibitors, dose response, selectivity assay for Rce1 protease inhibitor project, biochemical, quenched peptide fluorescence, cherry-pick (AID 488789)
# [15] = Luminescence Cell-Based Dose Confirmation HTS to Identify Inhibitors of Platelet Dense Granule Release. [Related pubchem assays: 1663 (Primary HTS), 1678 (Summary of Project)]; type: functional
# [16] = Shn3 3'UTR reporter inhibitors, dose response, cell-based, Clone20 osteoblasts, firefly luciferase, cherry-picked (AID 624132); type: functional;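 also: firefly luciferase luminescence from reporter carrying the Shn3 3'UTR in osteoblasts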
# [17] = HepG2 cell cytotoxicity, dose response, cytotoxicity control for Shn3 inhibitor project, CellTiter-Glo, cherry-picked (AID 624134); type: functional, cell-based
# [18] = molecular target: T3, Luciferin 4-monooxygenase (Photinus pyralis, UniProt P08659); test: firefly luciferase enzyme inhibitors, dose response, biochemical, luminescence (AID 1891)
# [19] = molecular target: T3, Luciferin 4-monooxygenase; test: Counter Screen for Luciferase-based Assay Positives. [Related pubchem assays: 620, 618, 411 ]
# [20] = tested on: HT-1080; test: cytotoxicity in HT1080 fibrosarcoma cells, cell-based, fluorescence readout (AID 620); type: functional; conditions: Homo sapiens
# [21] = tested on: HEK293; test: inhibitors of LMP1-driven NF-kB reporter, dose response, cell-based, HEK293, luciferase, cherry-pick (AID 588343); type: functional; conditions: Homo sapiens
# [22] = molecular target: T4, Aminopeptidase N (Plasmodium falciparum FcB1/Columbia, UniProt O96935); test: P. falciparum M1AAP inhibitors, biochemical, fluorogenic H-Leu-NHMec substrate, 1536-well (AID 1445); set-up: species or system Plasmodium falciparum 3D7, 3D7
# T4 sequence (O96935 whole entry): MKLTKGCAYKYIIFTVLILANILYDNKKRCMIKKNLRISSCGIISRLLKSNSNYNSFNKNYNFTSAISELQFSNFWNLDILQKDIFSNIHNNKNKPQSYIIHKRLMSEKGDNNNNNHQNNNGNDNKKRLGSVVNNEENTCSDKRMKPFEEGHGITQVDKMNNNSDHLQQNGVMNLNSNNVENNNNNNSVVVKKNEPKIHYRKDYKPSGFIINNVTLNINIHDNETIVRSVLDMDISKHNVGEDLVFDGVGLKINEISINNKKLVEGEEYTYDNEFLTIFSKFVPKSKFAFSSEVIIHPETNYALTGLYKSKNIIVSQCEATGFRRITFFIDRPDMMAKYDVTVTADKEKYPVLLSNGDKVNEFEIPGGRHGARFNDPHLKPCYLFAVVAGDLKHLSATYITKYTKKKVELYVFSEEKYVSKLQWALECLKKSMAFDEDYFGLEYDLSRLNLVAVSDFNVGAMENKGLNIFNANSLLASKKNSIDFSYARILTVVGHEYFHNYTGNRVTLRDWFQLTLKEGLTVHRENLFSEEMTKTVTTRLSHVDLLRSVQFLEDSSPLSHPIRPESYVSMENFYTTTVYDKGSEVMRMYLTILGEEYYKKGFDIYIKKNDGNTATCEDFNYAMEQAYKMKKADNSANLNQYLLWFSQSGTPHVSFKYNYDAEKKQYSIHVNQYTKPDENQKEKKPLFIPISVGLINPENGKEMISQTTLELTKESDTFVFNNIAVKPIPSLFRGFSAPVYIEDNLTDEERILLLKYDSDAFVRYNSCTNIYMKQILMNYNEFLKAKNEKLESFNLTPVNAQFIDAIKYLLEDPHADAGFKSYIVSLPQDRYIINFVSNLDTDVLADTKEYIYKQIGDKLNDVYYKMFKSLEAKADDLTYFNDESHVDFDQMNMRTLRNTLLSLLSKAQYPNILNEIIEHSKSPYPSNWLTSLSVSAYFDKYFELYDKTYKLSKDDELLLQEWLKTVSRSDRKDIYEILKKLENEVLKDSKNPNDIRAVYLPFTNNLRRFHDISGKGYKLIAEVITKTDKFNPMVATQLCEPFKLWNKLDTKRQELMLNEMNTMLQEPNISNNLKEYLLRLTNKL
# [23] = molecular target: T5, Voltage-gated N-type calcium channel alpha-1B subunit/Amyloid beta A4 precursor protein-binding family A member 1 (Homo sapiens, UniProt Q00975+Q02410); type: protein assay
# [24] = molecular target: T5, Voltage-gated N-type calcium channel alpha-1B subunit/Amyloid beta A4 precursor protein-binding family A member 1; type: protein assay; remark: listed apart in the source
# [25] = molecular target: Peroxisome proliferator-activated receptor gamma/Nuclear receptor coactivator 3 (Homo sapiens, UniProt P37231); test: TR-FRET dose response biochemical High Throughput Screening assay for agonists of the steroid receptor coactivator 3 (SRC-3) recruitment by the peroxisome proliferator-activated receptor gamma (PPAR gamma): non-selective agonists. [Related pubchem assays: 1301 (Confirmation screen.), 1048 (Primary screen.)]; type: functional
# [26] = molecular target: Peroxisome proliferator-activated receptor gamma/Nuclear receptor coactivator 2 (Homo sapiens, UniProt P37231); test: (§1) TR-FRET dose response biochemical High Throughput Screening assay for agonists of the steroid receptor coactivator 2 (SRC-2) recruitment by the peroxisome proliferator-activated receptor gamma (PPAR gamma): non-selective agonists. [Related pubchem assays: 1297, 1032 ]; type: functional
# [27] = HEp-2 cell cytotoxicity, dose response, cytotoxicity control for RSV inhibitor project, HTS (AID 2410); type: functional; conditions: human respiratory syncytial virus
# [28] = molecular target: Peroxisome proliferator-activated receptor gamma/Nuclear receptor coactivator 1 (Homo sapiens, UniProt P37231); test: as §1, with “1 (SRC-1)” for “2 (SRC-2)”, “assays (depositor defined):AID1300, AID1808, AID504735, AID631]” for “assays: 1297, 1032 ]”; type: protein assay
# [29] = molecular target: Intestinal-type alkaline phosphatase (Homo sapiens, UniProt P09923); test: human intestinal alkaline phosphatase activators, dose response, biochemical, luminescence, uHTS hits (AID 463120); type: functional
# [30] = molecular target: Nonstructural protein 1 (Influenza A virus, UniProt Q194T2); type: functional, Influenza A virus (A/California/07/2009(H1N1))
# Nonstructural protein 1, sequence (Q194T2 whole entry): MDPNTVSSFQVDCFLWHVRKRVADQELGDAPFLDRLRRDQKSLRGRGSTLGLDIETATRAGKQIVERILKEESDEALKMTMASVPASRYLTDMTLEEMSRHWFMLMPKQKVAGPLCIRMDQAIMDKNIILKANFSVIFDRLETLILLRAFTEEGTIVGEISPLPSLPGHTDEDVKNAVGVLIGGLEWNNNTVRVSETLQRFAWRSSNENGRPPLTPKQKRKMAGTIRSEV
# T3 sequence (P08659 whole entry): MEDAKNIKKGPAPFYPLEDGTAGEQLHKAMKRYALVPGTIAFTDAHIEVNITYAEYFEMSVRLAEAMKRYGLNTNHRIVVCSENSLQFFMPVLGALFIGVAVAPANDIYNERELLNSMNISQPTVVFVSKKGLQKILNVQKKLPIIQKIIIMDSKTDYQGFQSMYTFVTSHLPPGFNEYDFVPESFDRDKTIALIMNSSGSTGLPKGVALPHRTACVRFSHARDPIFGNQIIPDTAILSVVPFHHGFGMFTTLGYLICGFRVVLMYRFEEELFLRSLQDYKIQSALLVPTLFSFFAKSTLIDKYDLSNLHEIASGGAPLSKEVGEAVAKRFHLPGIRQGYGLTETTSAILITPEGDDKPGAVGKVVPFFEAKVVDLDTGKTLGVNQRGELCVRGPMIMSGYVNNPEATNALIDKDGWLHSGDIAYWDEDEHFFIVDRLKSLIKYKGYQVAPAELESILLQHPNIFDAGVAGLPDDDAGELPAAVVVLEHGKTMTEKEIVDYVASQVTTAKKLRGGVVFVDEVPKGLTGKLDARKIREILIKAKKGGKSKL
# Peroxisome proliferator-activated receptor gamma/Nuclear receptor coactivator 1, sequence (P37231 whole entry): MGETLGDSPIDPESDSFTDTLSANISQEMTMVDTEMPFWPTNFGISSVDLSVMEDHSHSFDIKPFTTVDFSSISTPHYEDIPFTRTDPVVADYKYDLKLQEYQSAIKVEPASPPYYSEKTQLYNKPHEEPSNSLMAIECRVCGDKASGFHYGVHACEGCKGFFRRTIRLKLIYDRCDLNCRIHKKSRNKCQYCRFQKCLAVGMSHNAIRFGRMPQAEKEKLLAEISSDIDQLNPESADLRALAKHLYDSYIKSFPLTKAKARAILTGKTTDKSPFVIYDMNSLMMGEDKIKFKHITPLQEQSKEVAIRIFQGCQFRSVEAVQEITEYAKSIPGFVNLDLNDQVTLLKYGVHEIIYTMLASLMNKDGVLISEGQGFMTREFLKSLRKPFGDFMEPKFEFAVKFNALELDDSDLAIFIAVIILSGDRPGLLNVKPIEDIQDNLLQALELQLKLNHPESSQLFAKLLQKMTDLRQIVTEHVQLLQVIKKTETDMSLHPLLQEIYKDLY
# Peroxisome proliferator-activated receptor gamma/Nuclear receptor coactivator 1, sequence (Q15788 whole entry, further chain): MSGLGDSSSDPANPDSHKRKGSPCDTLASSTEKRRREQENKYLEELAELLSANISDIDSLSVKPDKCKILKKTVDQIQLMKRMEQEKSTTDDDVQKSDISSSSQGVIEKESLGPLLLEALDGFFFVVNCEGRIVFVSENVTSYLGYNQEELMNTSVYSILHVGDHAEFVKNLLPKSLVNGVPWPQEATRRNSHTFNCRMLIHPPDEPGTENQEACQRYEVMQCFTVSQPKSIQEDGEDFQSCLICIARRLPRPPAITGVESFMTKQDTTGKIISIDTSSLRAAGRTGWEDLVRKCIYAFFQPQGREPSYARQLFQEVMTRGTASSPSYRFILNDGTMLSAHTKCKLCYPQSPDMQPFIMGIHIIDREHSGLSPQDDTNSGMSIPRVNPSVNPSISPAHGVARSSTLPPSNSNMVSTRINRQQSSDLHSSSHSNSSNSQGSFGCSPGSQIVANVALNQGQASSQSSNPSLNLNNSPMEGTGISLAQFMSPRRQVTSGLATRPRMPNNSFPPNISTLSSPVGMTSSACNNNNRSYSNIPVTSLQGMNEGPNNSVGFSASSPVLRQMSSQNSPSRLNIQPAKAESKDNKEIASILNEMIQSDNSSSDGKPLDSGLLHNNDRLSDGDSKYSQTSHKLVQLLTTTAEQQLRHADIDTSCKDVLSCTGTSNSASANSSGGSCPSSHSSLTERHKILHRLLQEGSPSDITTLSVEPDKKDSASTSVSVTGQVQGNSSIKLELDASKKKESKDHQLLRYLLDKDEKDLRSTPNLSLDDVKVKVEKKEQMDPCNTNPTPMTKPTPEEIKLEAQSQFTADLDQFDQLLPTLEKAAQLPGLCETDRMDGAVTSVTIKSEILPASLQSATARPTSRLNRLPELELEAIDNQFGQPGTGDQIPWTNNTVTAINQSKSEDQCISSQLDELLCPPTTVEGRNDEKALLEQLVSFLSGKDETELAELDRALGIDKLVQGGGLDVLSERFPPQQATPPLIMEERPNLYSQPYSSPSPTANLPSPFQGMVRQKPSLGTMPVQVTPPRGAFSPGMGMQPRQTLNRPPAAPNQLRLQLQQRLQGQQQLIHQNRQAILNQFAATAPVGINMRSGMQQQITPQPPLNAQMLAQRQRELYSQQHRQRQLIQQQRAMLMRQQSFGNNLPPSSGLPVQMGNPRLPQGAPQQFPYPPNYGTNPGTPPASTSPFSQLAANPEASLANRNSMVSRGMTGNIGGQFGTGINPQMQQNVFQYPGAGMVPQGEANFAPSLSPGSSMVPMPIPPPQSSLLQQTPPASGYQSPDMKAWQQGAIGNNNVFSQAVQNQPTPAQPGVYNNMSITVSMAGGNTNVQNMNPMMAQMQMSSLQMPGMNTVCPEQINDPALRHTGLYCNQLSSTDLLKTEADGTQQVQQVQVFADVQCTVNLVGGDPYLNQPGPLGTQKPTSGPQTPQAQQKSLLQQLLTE
# Peroxisome proliferator-activated receptor gamma/Nuclear receptor coactivator 2, sequence (P37231 whole entry): as the sequence (P37231 whole entry) above
# Peroxisome proliferator-activated receptor gamma/Nuclear receptor coactivator 2, sequence (Q15596 whole entry, further chain): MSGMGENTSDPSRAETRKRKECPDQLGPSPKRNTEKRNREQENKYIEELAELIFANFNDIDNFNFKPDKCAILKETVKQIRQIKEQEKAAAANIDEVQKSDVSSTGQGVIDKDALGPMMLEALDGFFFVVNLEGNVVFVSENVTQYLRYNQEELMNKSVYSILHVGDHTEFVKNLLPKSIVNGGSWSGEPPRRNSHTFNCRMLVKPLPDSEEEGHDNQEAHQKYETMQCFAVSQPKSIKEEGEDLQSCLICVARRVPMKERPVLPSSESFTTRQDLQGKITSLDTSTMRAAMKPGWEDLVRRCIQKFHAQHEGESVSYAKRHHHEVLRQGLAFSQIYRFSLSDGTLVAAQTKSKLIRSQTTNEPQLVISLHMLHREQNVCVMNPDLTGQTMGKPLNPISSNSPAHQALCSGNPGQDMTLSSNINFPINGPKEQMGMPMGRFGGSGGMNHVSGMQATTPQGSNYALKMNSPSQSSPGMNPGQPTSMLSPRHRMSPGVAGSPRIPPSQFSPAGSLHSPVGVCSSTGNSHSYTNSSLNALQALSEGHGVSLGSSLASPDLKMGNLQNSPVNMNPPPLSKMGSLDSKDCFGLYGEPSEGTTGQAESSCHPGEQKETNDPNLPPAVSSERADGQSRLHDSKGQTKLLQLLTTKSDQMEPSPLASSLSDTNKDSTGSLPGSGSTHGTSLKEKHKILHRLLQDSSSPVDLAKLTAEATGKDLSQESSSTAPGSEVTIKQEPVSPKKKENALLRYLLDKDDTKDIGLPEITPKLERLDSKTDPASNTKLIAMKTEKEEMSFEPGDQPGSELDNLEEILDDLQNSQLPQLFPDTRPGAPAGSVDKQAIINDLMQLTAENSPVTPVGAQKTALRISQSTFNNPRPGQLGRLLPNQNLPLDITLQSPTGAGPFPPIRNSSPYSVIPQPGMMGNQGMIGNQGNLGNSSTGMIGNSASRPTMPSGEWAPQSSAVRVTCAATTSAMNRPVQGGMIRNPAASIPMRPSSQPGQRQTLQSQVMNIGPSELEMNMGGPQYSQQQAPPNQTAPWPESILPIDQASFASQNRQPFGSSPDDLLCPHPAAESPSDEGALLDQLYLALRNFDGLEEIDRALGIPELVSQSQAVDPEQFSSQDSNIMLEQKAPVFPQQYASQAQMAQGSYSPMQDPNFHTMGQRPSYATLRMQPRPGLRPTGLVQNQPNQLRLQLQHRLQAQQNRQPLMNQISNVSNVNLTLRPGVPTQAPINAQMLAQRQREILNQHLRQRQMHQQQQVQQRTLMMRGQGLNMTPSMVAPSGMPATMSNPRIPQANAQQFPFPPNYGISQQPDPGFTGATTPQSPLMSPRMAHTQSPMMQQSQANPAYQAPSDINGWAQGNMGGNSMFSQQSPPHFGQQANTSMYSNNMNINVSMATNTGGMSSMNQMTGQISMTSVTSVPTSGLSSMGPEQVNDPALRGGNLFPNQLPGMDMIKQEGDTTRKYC
# Trypsin, sequence (P00761 whole entry): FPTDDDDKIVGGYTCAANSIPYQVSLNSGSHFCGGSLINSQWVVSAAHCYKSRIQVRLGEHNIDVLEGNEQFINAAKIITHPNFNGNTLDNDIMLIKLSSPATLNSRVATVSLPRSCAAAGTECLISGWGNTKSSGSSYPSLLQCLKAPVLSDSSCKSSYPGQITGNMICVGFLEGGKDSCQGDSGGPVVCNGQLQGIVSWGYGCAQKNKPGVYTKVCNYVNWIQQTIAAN
smiles,measurement,setting,value
CCOc1ccc2nc(NC(=O)c3cnc(C)cn3)sc2c1,CC50,[1],12.7 µM (active)
same,CC50,[2],> 20 µM (active)
same,CC50,[3],> 40 µM (active)
same,IC50,[4],6.53 µM (active)
CCCOc1ccc(-c2nc3c(c(=O)[nH]c(=O)n3Cc3ccccc3)n2CCO)cc1OCC,AC50,[5],14.5 µM (active)
O=[N+]([O-])c1nn(-c2ccc3c(c2)OCCO3)[n+]([O-])c1Nc1ccccc1,EC50,[6],< 0.1 µM (active)
same,EC50,[7],4.89 µM (active)
same,EC50,[8],0.09 µM (active)
same,EC50,[9],< 0.16 µM (active)
same,EC50,[10],< 0.1 µM (active)
same,EC50,[11],0.098 µM (active)
same,IC50,[12],> 80 µM (inactive)
same,EC50,[13],< 0.1 µM (active)
N=c1n(CCN2CCCCC2)c2ccccc2n1CC(=O)c1ccc(Cl)c(Cl)c1,CC50,[2],11.9 µM (active)
same,CC50,[3],18.2 µM (active)
same,IC50,[4],23.9 µM (active)
O=C1OCCN1C(=O)[C@H]1[C@H](c2ccc(F)cc2)C(c2ccc(F)cc2)=NN1c1ccc(Br)cc1,AC50,[14],14.1 µM (active)
O=C(Nc1nc2cc3c(cc2s1)OCCO3)C1=COCCO1,EC50,[6],< 0.1 µM (active)
same,EC50,[7],0.669 µM (active)
same,EC50,[8],0.411 µM (active)
same,EC50,[15],5.65 µM (active)
same,EC50,[9],1.74 µM (active)
same,AC50,[16],2.17 µM (active)
same,EC50,[10],< 0.1 µM (active)
same,AC50,[17],18.1 µM (active)
same,EC50,[11],0.432 µM (active)
same,EC50,[13],< 0.1 µM (active)
same,EC50,[18],1.58 µM (active)
O=C(NC1=NCCS1)c1cc2ccccc2o1,EC50,[19],59.1 µM (active)
same,EC50,[20],> 50 µM (not active)
same,AC50,[21],3.65 µM (active)
CSCCC(C(=O)NC1=NCCS1)N1C(=O)c2ccccc2C1=O (stereo not given),IC50,[22],17.8 µM (active)
O=C(NCc1ccc2c(c1)OCO2)C1CCCN1C(=O)Nc1cccc(F)c1 (stereo not given),IC50,[22],75 µM (active)
O=C(O)c1ccc(Nc2nc(-c3cc4ccccc4oc3=O)cs2)cc1O,IC50,[23],> 50 µM (inactive)
same,IC50,[24],7.29 µM (active)
same,IC50,[22],9.7 µM (active)
CCc1ccc(-n2c(SCc3cc(=O)n4cc(Br)ccc4n3)nc3nncc-3c2O)cc1,EC50,[25],> 79.4 µM (not active)
same,EC50,[26],14.4 µM (not active)
same,CC50,[27],17 µM (active)
same,EC50,[28],> 79.4 µM (inactive)
Cc1nn(Cc2ccccc2Cl)c(C)c1C(=O)NCCN1C(=O)S/C(=C\c2ccccc2)C1=O,EC50,[25],> 79.4 µM (not active)
same,EC50,[26],> 79.4 µM (not active)
same,EC50,[28],> 79.4 µM (inactive)
O=C(NCCCN1CCOCC1)C(=O)N/N=C/c1ccccc1O,EC50,[29],19.2 µM (active)
same,IC50,[30],11.2 µM (active)
